Test results from PubChem BioAssay AID2060498 (Molecular Pharmacology Branch, DTP, NCI, 2025).
pIC50: −log10 of the molar value.

System: 171881-019-R-J1-PDC tumor spheroids, viability
Test: Anticancer human tumor 171881-019-R-J1-PDC patient-derived invasive breast carcinoma cell line growth inhibition [GQUAD]
Conditions: spheroids with HUVEC and MSC; for pIC50: curve of first compound; for viability, T/C: stronger effect = lower value
From the text: DNA G-quadruplex Stabilizer Agents in Combinations in Complex Spheroids
A high-throughput screen of multi-cell type tumor spheroids was designed to identify active combinations of DNA G-quadruplex stabilizer agents and targeted small molecules. Complex spheroids include a stromal component modeled by human endothelial cells (HUVEC) and fibroblasts modeled by human mesenchymal stem cells (MSCs). The concentration ranges selected for each drug and investigational agent were based upon clinically achievable concentrations if the clinical Cmax of the agent was known.
Compounds. The drugs and investigational agents: pidnarulex (CX-5461; NSC782164), APTO-253 (NSC789042), BRACO-19 (NSC847499), peposertib (NSC802822), ceralasertib (NSC780249), elimusertib (NSC800525), camonsertib (NSC841442), AZD-1390 (NSC803789), olaparib (NSC753686), talazoparib (NSC767125), ART-558 (NSC835418), sotorasib (NSC818433), MRTX-1133 (NSC836407), SN-38 (NSC673596), topotecan (NSC609699), etoposide (NSC141540), doxorubicin (NSC123127), gemcitabine (NSC613327), 5-fluorouracil (NSC19893), paclitaxel (NSC125973), vemurafenib (NSC761431), panobinostat (NSC761190), R-306465 (JNJ-16241199; NSC773264), adavosertib (NSC754352), TP-3654 (NSC805149), carboplatin (NSC241240), KSQ-4279 (NSC840948), and staurosporine (NSC755774) were obtained from the National Cancer Institute (NCI) Developmental Therapeutics Program Chemical Repository (34). The FDA-approved anticancer drug set is available from the NCI Developmental Therapeutics Program. […] The stock solutions were prepared in dimethyl sulfoxide (DMSO, Sigma-Aldrich, St. Louis, MO, cat. D2650) at 800-fold the tested concentration and stored at -70 degrees C prior to their use. All drugs and investigational agents were tested over a range starting from a high concentration at or near the clinical Cmax and decreasing in half-log increments. If the clinical Cmax for an agent had not been determined, the highest concentration tested was 10 microM.
2.3 Cell Culture. All cells were maintained in an incubator at 37 degrees C and 5% CO2 with 95% humidity. The PDC lines were cultured according to standard operating procedures established by the NCI PDMR. All PDCs were thawed and cultured in Matrigel-coated flasks prepared with a working solution of 1X Ham's F-12 nutrient mix, without supplementation (Invitrogen, cat. 11765054), 100 U/mL penicillin-streptomycin (Invitrogen, cat. 15140122), and 2.5% Matrigel (Corning Inc., cat. 354248) for the first three passages. The 857933-349-R-J2-PDC line was cultured in 6C/Colon 1B media, which includes advanced DMEM/F-12 (Thermo Fisher Scientific, cat. 12634028), 10 mM HEPES (Thermo Fisher Scientific, cat. 15630080), 1X GlutaMAX supplement (Thermo Fisher Scientific, cat. 35050061), 0.1 mg/mL primocin (InvivoGen, cat. ant-pm-2), 10% defined fetal bovine serum, heat inactivated (HyClone Laboratories Inc., cat. SH30070.03HI), 50% L-WRN conditioned media (ATCC, cat. CRL-3276), 1.25 mM N-Acetyl-L-cysteine (Sigma-Aldrich, cat. A9165), 10 mM nicotinamide (Sigma-Aldrich, cat. N0636), 1X B-27 supplement (Thermo Fisher Scientific, cat. 17504044), 1X N-2 supplement (Thermo Fisher Scientific, cat. 17502048), 10 microM Y-27632 dihydrochloride (Tocris Bioscience, cat. 1254), and 50 ng/mL human EGF recombinant protein (Thermo Fisher Scientific, cat. PHG0311). The 485176-168-R4-J1-PDC line was cultured in Panc media, which includes all 6C/Colon 1B media components plus 100 ng/mL human FGF-10 (Thermo Fisher Scientific, cat. 100-26), 500 nM SB-431542 (Selleckchem, cat. S1067), and gastrin (Tocris, cat. 3006).
[…]

[1] = second compound 0.0316 µM, first compound 0.0316 µM
[2] = second compound 0.0316 µM, first compound 0.1 µM
[3] = second compound 0.0316 µM, first compound 0.316 µM
[4] = second compound 0.0316 µM, first compound 1 µM
[5] = second compound 0.0316 µM, first compound 3.16 µM
[6] = second compound 0.0316 µM, first compound 10 µM
[7] = second compound 0.1 µM, first compound 0.0316 µM
[8] = second compound 0.1 µM, first compound 0.1 µM
[9] = second compound 0.1 µM, first compound 0.316 µM
[10] = second compound 0.1 µM, first compound 1 µM
[11] = second compound 0.1 µM, first compound 3.16 µM
[12] = second compound 0.1 µM, first compound 10 µM
[13] = second compound 0.316 µM, first compound 0.0316 µM
[14] = second compound 0.316 µM, first compound 0.1 µM
[15] = second compound 0.316 µM, first compound 0.316 µM
[16] = second compound 0.316 µM, first compound 1 µM
[17] = second compound 0.316 µM, first compound 3.16 µM
[18] = second compound 0.316 µM, first compound 10 µM
[19] = second compound 1 µM, first compound 0.0316 µM
[20] = second compound 1 µM, first compound 0.1 µM
[21] = second compound 1 µM, first compound 0.316 µM
[22] = second compound 1 µM, first compound 1 µM
[23] = second compound 1 µM, first compound 3.16 µM
[24] = second compound 1 µM, first compound 10 µM
[25] = second compound 3.16 µM, first compound 0.0316 µM
[26] = second compound 3.16 µM, first compound 0.1 µM
[27] = second compound 3.16 µM, first compound 0.316 µM
[28] = second compound 3.16 µM, first compound 1 µM
[29] = second compound 3.16 µM, first compound 3.16 µM
[30] = second compound 3.16 µM, first compound 10 µM
[31] = second compound 10 µM, first compound 0.0316 µM
[32] = second compound 10 µM, first compound 0.1 µM
[33] = second compound 10 µM, first compound 0.316 µM
[34] = second compound 10 µM, first compound 1 µM
[35] = second compound 10 µM, first compound 3.16 µM
[36] = second compound 10 µM, first compound 10 µM
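Also: spheroids exposed to compounds for 7 days.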
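For viability, T/C in this document: 100% = DMSO vehicle control viability.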

CC1COCCN1c1cc(-c2ccnn2C)c2ccnc(-c3ccn[nH]3)c2n1 (centres undefined) + Cc1[nH]c2ccc(F)cc2c1-c1nc2c3cccnc3c3ncccc3c2[nH]1
pIC50 (second compound 0.0316 µM): 7.19 | pIC50 (second compound 0.1 µM): 7.21 | pIC50 (second compound 0.316 µM): 7.22 | pIC50 (second compound 1 µM): 7.37 | pIC50 (second compound 3.16 µM): > 7.50 | pIC50 (second compound 10 µM): > 7.50 | viability, T/C [1]: 80% | viability, T/C [2]: 31.4% | viability, T/C [3]: 14.5% | viability, T/C [4]: 8.57% | viability, T/C [5]: 5.08% | viability, T/C [6]: 5.43% | viability, T/C [7]: 71.2% | viability, T/C [8]: 35.2% | viability, T/C [9]: 15.3% | viability, T/C [10]: 8.2% | viability, T/C [11]: 5.64% | viability, T/C [12]: 5.65% | viability, T/C [13]: 74% | viability, T/C [14]: 31% | viability, T/C [15]: 16.2% | viability, T/C [16]: 7.52% | viability, T/C [17]: 5.84% | viability, T/C [18]: 5.85% | viability, T/C [19]: 59% | viability, T/C [20]: 24.8% | viability, T/C [21]: 14.6% | viability, T/C [22]: 9.37% | viability, T/C [23]: 6.91% | viability, T/C [24]: 6.37% | viability, T/C [25]: 16.6% | viability, T/C [26]: 12.9% | viability, T/C [27]: 10.5% | viability, T/C [28]: 6.96% | viability, T/C [29]: 5.31% | viability, T/C [30]: 4.34% | viability, T/C [31]: 18% | viability, T/C [32]: 16.2% | viability, T/C [33]: 11.8% | viability, T/C [34]: 8.67% | viability, T/C [35]: 5.67% | viability, T/C [36]: 5.17%

CC1COCCN1c1cc(C2(S(C)(=N)=O)CC2)nc(-c2ccnc3[nH]ccc23)n1 (centres undefined) + Cc1[nH]c2ccc(F)cc2c1-c1nc2c3cccnc3c3ncccc3c2[nH]1
pIC50 (second compound 0.0316 µM): 5.93 | pIC50 (second compound 0.1 µM): 5.95 | pIC50 (second compound 0.316 µM): 5.95 | pIC50 (second compound 1 µM): 6.13 | pIC50 (second compound 3.16 µM): > 7.50 | pIC50 (second compound 10 µM): > 7.50 | viability, T/C [1]: 97.5% | viability, T/C [2]: 97% | viability, T/C [3]: 87.4% | viability, T/C [4]: 55.4% | viability, T/C [5]: 18.6% | viability, T/C [6]: 9.09% | viability, T/C [7]: 103% | viability, T/C [8]: 100% | viability, T/C [9]: 87.7% | viability, T/C [10]: 53.6% | viability, T/C [11]: 21.1% | viability, T/C [12]: 10.5% | viability, T/C [13]: 97.2% | viability, T/C [14]: 75.4% | viability, T/C [15]: 86.2% | viability, T/C [16]: 51.6% | viability, T/C [17]: 21.9% | viability, T/C [18]: 10.2% | viability, T/C [19]: 78.2% | viability, T/C [20]: 76.6% | viability, T/C [21]: 75.6% | viability, T/C [22]: 41% | viability, T/C [23]: 18.9% | viability, T/C [24]: 9.88% | viability, T/C [25]: 21.5% | viability, T/C [26]: 15.3% | viability, T/C [27]: 17.2% | viability, T/C [28]: 13.9% | viability, T/C [29]: 10.2% | viability, T/C [30]: 6.81% | viability, T/C [31]: 46% | viability, T/C [32]: 49.4% | viability, T/C [33]: 36.5% | viability, T/C [34]: 22% | viability, T/C [35]: 14.5% | viability, T/C [36]: 8.3%
